Results on 37 compounds are retold here after patent US8338565B2, “Macrocyclic compounds for inhibition of tumor necrosis factor alpha” (Ensemble Therapeutics Corporation, priority 2008, dated 2012).

The structures appear in SMILES notation. Numbered stars: 1 amine (or outer) side, 2 acyl side, 3 side chain; on linkers, the order of the positions; unused ones are H or OH. Bridge positions count the residues as written; N and C are the ends. Square brackets hold non-standard residues; d marks the D form. Peptide text beside a SMILES is read from it. Tartaroyl(2R,3R-(OAc)2) = CC(=O)O[C@@H](C(=O)[*:1])[C@@H](OC(C)=O)C(=O)[*:2]; dAla(benzothien-2-yl) = N[C@H](Cc1cc2ccccc2s1)C(=O)O; Phe(4-CF3) = N[C@@H](Cc1ccc(C(F)(F)F)cc1)C(=O)O; Phe(4-COOH) = N[C@@H](Cc1ccc(C(=O)O)cc1)C(=O)O; Phe(2,4-Cl2) = N[C@@H](Cc1ccc(Cl)cc1Cl)C(=O)O; Bip = N[C@@H](Cc1ccc(-c2ccccc2)cc1)C(=O)O; dPhe(4-NH2) = Nc1ccc(C[C@@H](N)C(=O)O)cc1; Phe(4-Br) = N[C@@H](Cc1ccc(Br)cc1)C(=O)O; dPhe(4-Cl) = N[C@H](Cc1ccc(Cl)cc1)C(=O)O; Phe(4-NH2) = Nc1ccc(C[C@H](N)C(=O)O)cc1; dAla(2-furyl) = N[C@H](Cc1ccco1)C(=O)O; d(hPhe) = N[C@H](CCc1ccccc1)C(=O)O; mTyr = N[C@@H](Cc1cccc(O)c1)C(=O)O; d2Thi = N[C@H](Cc1cccs1)C(=O)O; d3Thi = N[C@H](Cc1ccsc1)C(=O)O; Suc = O=C(CCC(=O)[*:2])[*:1]; Aib = CC(C)(N)C(=O)O; βAla = NCCC(=O)O Some results are limits rather than exact numbers.

T1 sequence (P01375 77-233 limits assumed, species assumed): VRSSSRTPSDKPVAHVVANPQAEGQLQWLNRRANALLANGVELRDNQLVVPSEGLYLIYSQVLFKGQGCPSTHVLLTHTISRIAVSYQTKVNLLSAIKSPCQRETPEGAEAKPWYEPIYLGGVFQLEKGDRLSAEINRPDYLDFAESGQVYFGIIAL

One test has as its target T1, TNFα / TNFα receptor (TNFα R1/Fc) (Homo sapiens, UniProt P01375).
T1 construct: purchased R&D Systems
In words: Inhibition of binding of TNFα to the TNFα receptor (plate ELISA competition). The conditions noted are these: Activity (IC50, inhibition of TNFα binding to TNFα R1/Fc), Table 2. A digest of the protocol:
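Plates were coated with TNFα at 15 nM. Test compound and 8.33 nM receptor-Fc (PBST, 2% DMSO) were first mixed in solution for 30 min at room temperature, then transferred to the plates for another 30 min. Competition was read by absorbance at 450 nm after HRP anti-human IgG Fc detection with TMB.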
`O=C1COc2ccc(cc2)C[C@@H](C(=O)NCc2nnn[nH]2)NC(=O)[C@H](Cc2ccccc2)NC(=O)[C@@H](Cc2ccc(-c3ccccc3)cc2)NC(=O)[C@H](Cc2cccs2)N1` [Compound 591] yielded an IC50 of under 10 µM. `O=C1COc2ccc(cc2)C[C@@H](C(=O)N[C@@H](CO)C(=O)O)NC(=O)[C@H](CCc2ccccc2)NC(=O)[C@@H](Cc2ccc(-c3ccccc3)cc2)NC(=O)[C@H](Cc2ccncc2)N1` [Compound 556] registered an IC50 of under 10 µM. Same read-out and setting: the same measure for `O=C1COc2ccc(cc2)C[C@@H](C(=O)N[C@@H](Cc2ccccc2)C(=O)O)NC(=O)[C@H](CCc2ccccc2)NC(=O)[C@@H](Cc2ccc(-c3ccccc3)cc2)NC(=O)[C@H](Cc2ccncc2)N1` [Compound 554]: under 10 µM.

Staying with this test, now noted: Table 2; read-out: Activity (IC50, inhibition of TNFα binding to TNFα R1/Fc).
As for `CC(C)(NC(=O)[C@H]1Cc2ccc(cc2)NC(=O)CCC(=O)N[C@H](CCc2ccccc2)C(=O)N[C@@H](Cc2ccc(C(F)(F)F)cc2)C(=O)N[C@H](Cc2ccccc2)C(=O)N1)C(=O)O` [Compound 14] ([d(hPhe)][Phe(4-CF3)][dF][dPhe(4-NH2)][Aib]-OH; linker N-4 via Suc), the IC50 was 30 to 100 µM. Regarding `O=C(O)CCCNC(=O)[C@@H]1Cc2ccc(cc2)OCC(=O)N[C@@H](Cc2ccc(-c3ccncc3)cc2)C(=O)N[C@H](Cc2ccc(-c3ccccc3)cc2)C(=O)N[C@@H](CCc2ccccc2)C(=O)N1` [Compound 580], the IC50 was under 10 µM. Same read-out and setting: with `O=C1CCC(=O)N[C@H](CCc2ccccc2)C(=O)NC(c2ccc(Br)cc2)C(=O)N[C@H](Cc2ccccc2)C(=O)N[C@H](C(=O)O)Cc2ccc(cc2)N1` (stereo partly shown) [Compound 183] the figure was 10 to 30 µM; with `O=C1CCC(=O)N[C@H](Cc2cc3ccccc3s2)C(=O)N[C@@H](Cc2ccc(C(F)(F)F)cc2)C(=O)N[C@H](Cc2ccccc2)C(=O)N[C@H](C(=O)O)Cc2ccc(cc2)N1` [Compound 164] ([dAla(benzothien-2-yl)][Phe(4-CF3)][dF][Phe(4-NH2)]-OH; linker N-4 via Suc), 30 to 100 µM. In the case of `O=C1COc2ccc(cc2)C[C@@H](C(=O)O)NC(=O)[C@@H](Cc2ccccc2)NC(=O)[C@@H](Cc2ccc(-c3ccccc3)cc2)NC(=O)[C@H](Cc2cccs2)N1` [Compound 210], the IC50 is over 100 µM. On to `O=C(O)[C@@H]1Cc2ccc(cc2)NC(=O)[C@H](O)[C@@H](O)C(=O)N[C@H](Cc2cccs2)C(=O)N[C@@H](Cc2ccc(OCc3ccccc3)cc2)C(=O)N[C@H](Cc2ccccc2)C(=O)N1` [Compound 177], for which the IC50 was in the range of 30 to 100 µM. For the compound `O=C1COc2ccc(cc2)C[C@@H](C(=O)O)NC(=O)[C@H](Cc2ccc(-c3ccncc3)cc2)NC(=O)[C@@H](Cc2ccc(-c3ccccc3)cc2)NC(=O)[C@H](Cc2ccncc2)N1` [Compound 645], the IC50 is under 10 µM. On the same count and under the same terms, with `O=C1CCC(=O)N[C@H](Cc2ccsc2)C(=O)N[C@@H](Cc2ccc(-c3ccccc3)cc2)C(=O)N[C@H](Cc2ccccc2)C(=O)N[C@H](C(=O)O)Cc2ccc(cc2)N1` [Compound 122] ([d3Thi][Bip][dF][Phe(4-NH2)]-OH; linker N-4 via Suc) the figure was 30 to 100 µM; with `O=C1CCC(=O)N[C@H](Cc2cccs2)C(=O)N[C@@H](Cc2ccc(-c3ccccc3)cc2)C(=O)N[C@H](Cc2ccc(Cl)cc2)C(=O)N[C@H](C(=O)O)Cc2ccc(cc2)N1` [Compound 81] ([d2Thi][Bip][dPhe(4-Cl)][Phe(4-NH2)]-OH; linker N-4 via Suc), over 100 µM; with `O=C(O)[C@@H]1Cc2ccc(cc2)NC(=O)[C@H](O)[C@@H](O)C(=O)N[C@H](Cc2ccccc2)C(=O)N[C@@H](Cc2ccc(-c3ccccc3)cc2)C(=O)N[C@H](CCc2ccccc2)C(=O)N1` [Compound 245], 10 to 30 µM. On the same count and under the same terms, with `O=C(O)[C@H](Cc1ccccc1)NC(=O)[C@@H]1Cc2ccc(cc2)NC(=O)[C@H](O)[C@@H](O)C(=O)N[C@@H](Cc2cccs2)C(=O)N[C@H](Cc2ccc(-c3ccccc3)cc2)C(=O)N[C@@H](CCc2ccccc2)C(=O)N1` [Compound 433] the figure was over 100 µM; with `CC(=O)NCCCC[C@@H]1NC(=O)COc2ccc(cc2)C[C@@H](C(=O)O)NC(=O)[C@H](CCc2ccccc2)NC(=O)[C@@H](Cc2ccc(-c3ccccc3)cc2)NC1=O` [Compound 508], under 10 µM; with `O=C1COc2ccc(cc2)C[C@@H](C(=O)O)NC(=O)[C@@H](CCc2ccccc2)NC(=O)[C@H](Cc2ccc(Cl)cc2Cl)NC(=O)[C@@H](Cc2ccc(C(F)(F)F)cc2)N1` [Compound 148], 30 to 100 µM. On the same count and under the same terms, the same measure for `O=C(O)[C@H]1Cc2ccc(cc2)NC(=O)[C@H](O)[C@@H](O)C(=O)N[C@H](Cc2cccs2)C(=O)N[C@H](Cc2ccc(-c3ccccc3)cc2)C(=O)N[C@H](Cc2ccccc2)C(=O)N1` [Compound 276]: over 100 µM. As for `CC(C)(C)OC(=O)C[C@H](NC(=O)[C@@H]1Cc2ccc(cc2)OCC(=O)N[C@@H](Cc2cccs2)C(=O)N[C@H](Cc2ccc(-c3ccccc3)cc2)C(=O)N[C@@H](Cc2ccccc2)C(=O)N1)C(=O)O` [Compound 389], the IC50 is over 100 µM. On to `O=C1COc2ccc(cc2)C[C@@H](C(=O)N(CCS(=O)(=O)O)C(CO)(CO)CO)NC(=O)[C@H](CCc2ccccc2)NC(=O)[C@@H](Cc2ccc(-c3ccccc3)cc2)NC(=O)[C@H](Cc2ccncc2)N1` [Compound 606], for which the IC50 is under 10 µM. Take `O=C1COc2ccc(cc2)C[C@@H](C(=O)O)NC(=O)[C@H](CCc2ccccc2)NC(=O)[C@@H](Cc2ccc(-c3ccccn3)cc2)NC(=O)[C@H](Cc2cccnc2)N1` [Compound 663]: the IC50 is over 100 µM. For the compound `O=C(O)[C@@H]1Cc2ccc(cc2)NC(=O)[C@H](O)[C@@H](O)C(=O)N[C@H](Cc2cccs2)C(=O)N[C@@H](Cc2ccc(-c3ccccc3)cc2)C(=O)N[C@H](Cc2ccc(Cl)cc2Cl)C(=O)N1` [Compound 287], the IC50 was 10 to 30 µM. As to `O=C1COc2ccc(cc2)C[C@@H](C(=O)O)NC(=O)[C@H](CCc2ccccc2)NC(=O)[C@@H](Cc2ccc(-c3ccccc3)cc2)NC(=O)[C@H](Cc2ccccc2C(F)(F)F)N1` [Compound 689], the IC50 was under 10 µM. On to `O=C1COc2ccc(cc2)C[C@@H](C(=O)O)NC(=O)[C@@H](CCc2ccccc2)NC(=O)[C@H](Cc2ccc(-c3ccccc3)cc2)NC(=O)[C@@H](Cc2ccc(C(F)(F)F)cc2)N1` [Compound 150], for which the IC50 was 30 to 100 µM.

As for `O=C1COc2ccc(cc2)C[C@@H](C(=O)N[C@@H](CO)C(=O)O)NC(=O)[C@H](CCc2ccccc2)NC(=O)[C@@H](Cc2ccc(-c3ccccc3)cc2)NC(=O)[C@H](Cc2ccc(-c3ccncc3)cc2)N1` [Compound 583], the IC50 was under 10 µM. For the compound `O=C1COc2ccc(cc2)C[C@@H](C(=O)O)NC(=O)[C@@H](CCc2ccccc2)NC(=O)[C@H](Cc2ccc(Cl)cc2Cl)NC(=O)[C@@H](Cc2cccs2)N1` [Compound 147], the IC50 was in the range of 30 to 100 µM.

Turning to `O=C1N[C@H](CCc2ccccc2)C(=O)N[C@@H](C(=O)O)Cc2ccc(cc2)NC(=O)[C@H](O)[C@@H](O)C(=O)N[C@H](Cc2cccs2)C(=O)N[C@H]1Cc1ccc(Br)cc1` [Compound 238], the IC50 was under 10 µM. Same read-out and setting: with `O=C1COc2ccc(cc2)C[C@@H](C(=O)O)NC(=O)[C@H](Cc2ccccc2)NC(=O)[C@H](Cc2ccc(Cl)cc2Cl)NC(=O)[C@H](Cc2cccs2)N1` [Compound 367] the figure was over 100 µM; with `COc1ccc(C[C@@H]2NC(=O)[C@H](Cc3cccs3)NC(=O)COc3ccc(cc3)C[C@@H](C(=O)O)NC(=O)[C@H](Cc3ccccc3)NC2=O)cc1OC` [Compound 406], over 100 µM. On the same count and under the same terms, the same measure for `O=C1N[C@H](Cc2ccccc2)C(=O)N[C@@H](C(=O)O)Cc2ccc(cc2)NC(=O)[C@H](O)[C@@H](O)C(=O)N[C@H](Cc2ccccc2)C(=O)N[C@H]1Cc1ccc(-c2ccccc2)cc1` [Compound 241]: 30 to 100 µM; for `O=C1CCC(=O)N[C@H](Cc2cccs2)C(=O)N[C@@H](Cc2cccc(O)c2)C(=O)N[C@H](Cc2ccccc2)C(=O)N[C@H](C(=O)O)Cc2ccc(cc2)N1` [Compound 102] ([d2Thi][mTyr][dF][Phe(4-NH2)]-OH; linker N-4 via Suc): over 100 µM; for `O=C1COc2ccc(cc2)C[C@@H](C(=O)O)NC(=O)[C@@H]2CCCN2C(=O)[C@H](Cc2ccc(-c3ccccc3)cc2)NC(=O)[C@H](Cc2cccs2)N1` [Compound 255]: over 100 µM. On the same count and under the same terms, with `O=C1CCNC(=O)c2ccc(cc2)C[C@@H](C(=O)O)NC(=O)[C@H](Cc2ccccc2)NC(=O)[C@H](Cc2ccc(-c3ccccc3)cc2)NC(=O)[C@@H](CCc2ccccc2)N1` [Compound 464] ([βAla][d(hPhe)][Bip]F[Phe(4-COOH)]-OH; lactam N-5) the figure was under 10 µM; with `CC(=O)O[C@H]1C(=O)Nc2ccc(cc2)C[C@H](C(=O)O)NC(=O)[C@@H](CCc2ccccc2)NC(=O)[C@H](Cc2ccc(Cl)cc2Cl)NC(=O)[C@@H](Cc2ccccc2)NC(=O)[C@@H]1OC(C)=O` [Compound 220] ([dF][Phe(2,4-Cl2)][d(hPhe)][dPhe(4-NH2)]-OH; linker N-4 via Tartaroyl(2R,3R-(OAc)2)), 10 to 30 µM; with `N[C@@H]1CC(=O)Nc2ccc(cc2)C[C@@H](C(=O)O)NC(=O)[C@@H](Cc2ccccc2)NC(=O)[C@H](Cc2ccc(-c3ccccc3)cc2)NC(=O)[C@@H](Cc2cccs2)NC1=O` [Compound 372] (H-[dD][d2Thi][Bip][dF][Phe(4-NH2)]-OH; lactam 1-5), over 100 µM. Regarding `O=C1CCC(=O)N[C@H](Cc2cccs2)C(=O)N[C@@H](Cc2ccc(Br)cc2)C(=O)N[C@H](Cc2ccco2)C(=O)N[C@@H](C(=O)O)Cc2ccc(cc2)N1` [Compound 159] ([d2Thi][Phe(4-Br)][dAla(2-furyl)][dPhe(4-NH2)]-OH; linker N-4 via Suc), the IC50 was 10 to 30 µM. Regarding `CC(=O)NCCCC[C@@H]1NC(=O)[C@H](Cc2ccc(-c3ccccc3)cc2)NC(=O)[C@H](Cc2cccs2)NC(=O)COc2ccc(cc2)C[C@@H](C(=O)O)NC1=O` [Compound 256], the IC50 is over 100 µM. On the same count and under the same terms, the same measure for `O=C1COc2ccc(cc2)C[C@H](C(=O)O)NC(=O)[C@H](CCc2ccccc2)NC(=O)[C@@H](Cc2ccc(-c3ccccc3)cc2)NC(=O)[C@H](Cc2c[nH]c3ccccc23)N1` [Compound 730]: under 10 µM.
